Experimental data published in patent publication US20220119446A1, “BIOMARKERS AND TREATMENT OF NEURONAL INJURY AND NEURODEGENERATION” (Board of Supervisons of Louisiana State University and …, priority 2018, published 2022).
Entries after “also recorded” stand apart in the source; their conditions may differ. * marks the point of attachment. Boc = CC(C)(C)OC(=O)*

Columns and labels:
Wnt5a = assay: Western blot of secreted (sWnt5a) and cellular (cWnt5a) Wnt5a in RPE cells under UOS; format: cell-based, human
Experimental: To monitor transcription, translation, and secretion of Wnt5a, we performed western blot assays using cellular lysates and medium from hpRPE undergoing UOS+/−NPD1 at different time points. Medium was precipitated using Methanol/Chloroform to bring down all secreted Wnt5a.
The pellet can be re-suspended and denatured in 100 μl of 2× Laemmli sample buffer (Bio-Rad Laboratories, Hercules, Calif.) at 95° C. for 5 min. MCAo brain tissue and cell samples can be homogenized using RIPA (Thermo Fisher Scientific, Waltham, Mass.) buffer supplemented with protease and phosphatase inhibitor cocktails (Millipore Sigma, Burlington, Mass.). In embodiments, the amount of 30 μg of total protein is loaded in NuPAGE® Novex® 4-12% Bis-Tris precast gels (Life Technologies Corporation, Carlsbad, Calif.) and run at constant 120V for about 1 hour and 20 min. Proteins can be transferred to μm Nitrocellulose membrane using Bio-Rad Trans-Blot® Turbo™ System (Bio-Rad Laboratories, Hercules, Calif.). ECL™ Plex Fluorescent Rainbow Markers (GE Healthcare, Chicago, Ill.) can be used as the ladder for protein's molecular weight. Membranes can be blocked using 5% non-fat dry milk (Bio-Rad Laboratories, Hercules, Calif.) in TBS with 1% Tween® 20 (TBST-10×) (Croda International, Snaith, United Kingdom) for 1 hour and incubated overnight with primary antibodies. Anti-mouse or anti-rabbit secondary antibodies conjugated with Cy3 or Cy5 can be used to visualize the protein of interest. Immunoblots can be documented using LAS 4000 imaging system (GE Healthcare Life Sciences, Marlborough, Mass.). A time course exposition can be produced in each case to prevent quantification of saturated images. In embodiments, densitometry data are obtained using ImageQuant™ TL software (GE Healthcare Life Sciences, Marlborough, Mass.).
The pellet was re-suspended and denatured in 100 μl of 2× Laemmli sample buffer (Bio-Rad Laboratories) at 95° C. for 5 min. MCAo brain tissue and cell samples were homogenized using RIPA (Thermo Fisher Scientific) buffer supplemented with protease and phosphatase inhibitor cocktails (Sigma). The amount of 30 μg of total protein was loaded in NuPAGE® Novex® 4-12% Bis-Tris precast gels (Life Technologies Corporation) or Mini-PROTEAN TGX Stain free gels 4-15% and ran at constant 120V for 1 hour and 20 min or 250 V for 40 min respectively. Proteins were transferred to μm Nitrocellulose or LF-PVDF membrane using Bio-Rad Trans-Blot® Turbo™ System (Bio-Rad Laboratories). ECL™ Plex Fluorescent Rainbow Markers (GE Healthcare) were used as the ladder for protein's molecular weight. […] A time course exposition was produced in each case to prevent quantification of saturated images. […]

rats subjected to MCAo = assay: Transient middle cerebral artery occlusion (MCAo): behavioral tests, neurological score; format: in vivo, rat; details: for neuronal damage / neuroprotection in stroke model (tissue and behavioral): rat MCAo, summary statements
Source text: In certain embodiments, Male Sprague-Dawley rats (290-320 g; Charles River Lab, Wilmington, Mass., USA) are used for in vivo studies. For all surgical procedures, animals can be fasted and anesthesia can be induced with 3.5% isoflurane and 70% nitrous oxide and 30% oxygen. Animals can be orotracheally intubated; given atropine for secretions, pancuronium for immobilization; ventilated mechanically on a humidified mixture of 70% nitrous oxide, 1.0-1.5% isoflurane and a balance of oxygen. A femoral artery and vein can be catheterized for continuous blood pressure monitoring and periodic blood sampling for arterial gases and pH. PCO2 can be maintained at 35-40 mm Hg and P02 at 105-120 mm Hg by ventilator adjustments. Rectal temperature can be measured with a thermistor and maintained with a heating lamp at 37.0-37.5° C. Cranial (temporalis muscle) temperature also can be monitored and regulated with a separate warming lamp at 36.2-36.7° C.
The right MCA can be occluded for 2 h by intraluminal filament, as described previously (Belayev et al. 2011). Briefly, the right common carotid artery (CCA) and external carotid artery (ECA) can be exposed through midline neck incision, and then completely isolated from the surrounding nerves. The occipital branches of the ECA and pterygopalatine artery can be ligated. A 4-cm of 3-0 nylon filament, coated with poly-L-lysine can be advanced to the origin of MCA through the proximal ECA via internal carotid artery. The filament can be inserted 20 to 22 mm from the bifurcation of the CCA, according to the animal's body weight. The neck incision can then be closed, and the rats can be returned to their cages. […]
In certain embodiments, behavioral tests are conducted before, during MCAo (at 60 min), and then at 24 h, 48 h, 72 h, or 7 days after MCAo by an investigator blinded to the experimental groups. […] In embodiments, the severity of stroke injury is assessed by behavioral examination of each rat at 60 min after onset of MCAo. […]

Row | Molecule | secreted Wnt5a (sWnt5a) in medium (Wnt5a; ARPE-19 cells, 600 μM H2O2 and 10 ng/ml TNFα, 6 hours, 100 nM NPD1) | secreted Wnt5a (sWnt5a) in medium (Wnt5a; hpRPE cells under UOS, Pitstop2 added 2 hours before harvesting) | neuronal damage / neuroprotection in stroke model (tissue and behavioral) (rats subjected to MCAo) | neuronal damage / neuroprotection in stroke model (tissue and behavioral) (rats subjected to MCAo; listed as BOX5) | neurological score (total, tactile and proprioceptive placing) (rats subjected to MCAo; rat, 2 h MCAo, IV 1 h later, DHA 5 mg/kg or Box5 (1 mg/kg; 400 μg), days 1, 2, 3, 7, versus saline)
1 | CC/C=C\C[C@H](O)\C=C/C=C/C=C/[C@H](O)C/C=C\C/C=C\CCC(=O)O [NPD1, 10R,17S-dihydroxy-docosa-4Z,7Z,11E,13E,15Z,19Z-hexaenoic acid] | disappeared; also recorded: decreases band intensity close to control levels | decreased Wnt5a in the medium; also recorded: decreased media sWnt5a; also recorded: decreases soluble Wnt5a |  |  | 
2 | t-Boc-NH-Met-Asp-Gly-Cys-Glu-Leu-CO2H (Boc-MDGCEL-OH) [Box5] |  |  | significantly decreased; also recorded: beneficious at the behavioral level as well as in the reduction of stroke damage; also recorded: protection at the neurological/behavioral level as well as by reduction of stroke damage | remarkable neuroprotection | remarkable similarity to that obtained by DHA treatment; also recorded: improvement in neurological score; also recorded: resembling DHA treatment; also recorded: neurological protection remarkable similar to that obtained by DHA treatment
